How the values were obtained:
Experiment in all cases: Post-emergence application in field trials, herbicidal activity (damage scale 0 to 100%)
Assay type in all cases: in vivo
[1] = test system: Digitaria sanguinalis (DIGSA)
Protocol: (§1) In the examples below, using the method of S. R. Colby (1967) “Calculating synergistic and antagonistic responses of herbicide combinations”, Weeds 15, p. 22ff., the value E, which is expected if the activity of the individual active compounds is only additive, was calculated:
(§2) [formula] • wherein • X=percent activity using active herbicide A at an application rate a; • Y=percent activity using active herbicide B (e.g. pyroxasulfone) at an application rate b; • E=expected activity (in %) by A+B at application rates a+b.
(§3) For 3-component mixtures the synergistic response was calculated as described in: Ferry, Nancy; Stanley, Bruce H.; and Armel, Gregory (2005). “DESIGN AND ANALYSIS OF BIOLOGICAL ASSAYS OF MIXTURES,” Conference on Applied Statistics in Agriculture. https://doi.org/10.4148/2475-7772.1133. According to this publication, the Colby calculation can be generalized to a third mixing partner, Z, employing the following formula: […]
(§4) If the value found experimentally is higher than the value E calculated according to Colby, a synergistic effect is present.
(§5) On field test sites, natural weed infestation or seeded weeds were treated post-emergence of the weeds.
(§6) In the field trials, the weeds were treated as indicated below.
(§7) In the following experiments, the herbicidal activity for the individual herbicidal compositions (solo and mixture applications) was assessed at the indicated days after treatment (DAT). The assessments for the damage on undesired weeds caused by the composition was carried out using a scale from 0 to 100%, compared to the untreated control plants. Here, 0 means no damage and 100 means complete destruction of the plants.
(§8) Herbicide A-1 (342 g/l) and pyroxasulfone (500 g/l) were, together with addition of 0.25 v/v % MSO (methylated seed oil) as adjuvant, formulated in 200 l/ha water as distribution medium and sprayed with commercial flat fan nozzles.
(§9) Herbicide A-1 (342 g/l), pyroxasulfone (500 g/l) and trifludimoxazin (500 g/l) were, together with addition of 0.25 v/v % MSO (methylated seed oil) as adjuvant, formulated in 200 l/ha water as distribution medium and sprayed with commercial flat fan nozzles.
(§10) Herbicide A-1 (342 g/I), pyroxasulfone (500 g/l) and glyphosate-isopropylammonium (356 g/l) were, together with addition of 0.25 v/v % MSO (methylated seed oil) as adjuvant, formulated in 200 l/ha water as distribution medium and sprayed with commercial flat fan nozzles.
(§11) Herbicide A-1 (342 g/l), pyroxasulfone (500 g/l) and glufosinate-P-ammonium (211 g/l) were, together with addition of 0.25 v/v % MSO (methylated seed oil) as adjuvant, formulated in 200 l/ha water as distribution medium and sprayed with commercial flat fan nozzles.
(§12) Herbicide A-1 (342 g/l), pyroxasulfone (500 g/l) and 2,4-D-choline (456 g/l) were, together with addition of 0.25 v/v % MSO (methylated seed oil) as adjuvant, formulated in 200 l/ha water as distribution medium and sprayed with commercial flat fan nozzles.

Zea mays (ZEAMX) = test system: Zea mays (ZEAMX)
Protocol: as §1, §2, §3, §4, §5, §6, §7, §8, §9, §10, §11, §12

Hordeum vulgare (HORVW) = test system: Hordeum vulgare (HORVW)
Protocol: as §1, §2, §3, §4, §5, §6, §7, §8, §9, §10, §11, §12

CCOC(=O)COc1ccccc1Oc1nc(-n2c(=O)cc(C(F)(F)F)n(C)c2=O)c(F)cc1Cl [A-1, ethyl 2-[2-[[3-chloro-5-fluoro-6-[3-methyl-2,6-dioxo-4-(trifluoromethyl)pyrimidin-1-yl]-2-pyridyl]oxy]phenoxy]acetate]
% Herbicidal activity ([1]; 42 DAT, stage 22, height 10-15 cm, g ai/ha A-1 18, B 90, C-4 12.5): 70%
% Herbicidal activity ([1]; 42 DAT, stage 22, height 10-15 cm, g ai/ha A-1 18, B 90, C-12 252): 70%
% Herbicidal activity ([1]; DIGSA, growth stage 22, height 10-15 cm, A-1 12.5 g ai/ha, 7 DAT, Table 4.1): 80%
% Herbicidal activity ([1]; DIGSA, growth stage 22, height 10-15 cm, A-1 12.5 g ai/ha, 21 DAT, Table 4.3): 70%
% Herbicidal activity ([1]; DIGSA, growth stage 22, height 10-15 cm, A-1 18 g ai/ha, 7 DAT, Table 4.1): 80%
% Herbicidal activity ([1]; DIGSA, growth stage 22, height 10-15 cm, A-1 18 g ai/ha, 21 DAT, Table 4.3): 80%
% Herbicidal activity ([1]; Table 8.1, 7 DAT, stage 22, height 10-15 cm, g ai/ha A-1 18, B 70, C-12 1066): 80%
% Herbicidal activity ([1]; Table 8.2, 21 DAT, stage 22, height 10-15 cm, g ai/ha A-1 18, B 70, C-12 1066): 80%
% Herbicidal activity ([1]; Table 8.4, 42 DAT, stage 22, height 10-15 cm, g ai/ha A-1 18, B 70, C-12 1066): 60%
% Herbicidal activity (Zea mays (ZEAMX); 7 DAT, stage 15-16, height 27-33 cm, g ai/ha A-1 12.5, B 70, C-12 252): 40%
% Herbicidal activity (Zea mays (ZEAMX); 7 DAT, stage 15-16, height 27-33 cm, g ai/ha A-1 18, B 70, C-12 252): 40%
% Herbicidal activity (Zea mays (ZEAMX); 7 DAT, stage 15-16, height 27-33 cm, g ai/ha A-1 18, B 90, C-4 12.5): 55%
% Herbicidal activity (Zea mays (ZEAMX); 7 DAT, stage 15-16, height 27-33 cm, g ai/ha A-1 18, B 90, C-12 252): 40%
% Herbicidal activity (Zea mays (ZEAMX); 21 DAT, stage 15-16, height 27-33 cm, g ai/ha A-1 12.5, B 70, C-12 252): 25%
% Herbicidal activity (Zea mays (ZEAMX); 21 DAT, stage 15-16, height 27-33 cm, g ai/ha A-1 18, B 70, C-12 252): 30%
% Herbicidal activity (Zea mays (ZEAMX); 21 DAT, stage 15-16, height 27-33 cm, g ai/ha A-1 18, B 90, C-12 252): 30%
% Herbicidal activity (Zea mays (ZEAMX); 42 DAT, stage 15-16, height 27-33 cm, g ai/ha A-1 12.5, B 70, C-12 252): 15%
% Herbicidal activity (Zea mays (ZEAMX); 42 DAT, stage 15-16, height 27-33 cm, g ai/ha A-1 18, B 70, C-12 252): 20%
% Herbicidal activity (Zea mays (ZEAMX); 42 DAT, stage 15-16, height 27-33 cm, g ai/ha A-1 18, B 90, C-12 252): 20%
% Herbicidal activity (Zea mays (ZEAMX); Table 8.1, 7 DAT, stage 15-16, height 50-60 cm, g ai/ha A-1 18, B 70, C-12 1066): 85%
% Herbicidal activity (Zea mays (ZEAMX); Table 8.1, 7 DAT, stage 15-16, height 50-60 cm, g ai/ha A-1 18, B 90, C-12 1066): 85%
% Herbicidal activity (Zea mays (ZEAMX); ZEAMX, growth stage 15-16, height 40-60 cm, A-1 18 g ai/ha, 7 DAT, Table 4.2): 85%
% Herbicidal activity (Zea mays (ZEAMX); ZEAMX, growth stage 15-16, height 40-60 cm, A-1 18 g ai/ha, 21 DAT, Table 4.4): 80%
% Herbicidal activity (Hordeum vulgare (HORVW); 7 DAT, stage 23-29, height 20-25 cm, g ai/ha A-1 12.5, B 70, C-12 252): 70%
% Herbicidal activity (Hordeum vulgare (HORVW); 7 DAT, stage 23-29, height 20-25 cm, g ai/ha A-1 18, B 70, C-12 252): 70%
% Herbicidal activity (Hordeum vulgare (HORVW); 7 DAT, stage 23-29, height 20-25 cm, g ai/ha A-1 18, B 90, C-12 252): 70%
% Herbicidal activity (Hordeum vulgare (HORVW); 21 DAT, stage 23-29, height 20-25 cm, g ai/ha A-1 12.5, B 70, C-12 252): 70%
% Herbicidal activity (Hordeum vulgare (HORVW); 21 DAT, stage 23-29, height 20-25 cm, g ai/ha A-1 18, B 70, C-12 252): 70%
% Herbicidal activity (Hordeum vulgare (HORVW); 21 DAT, stage 23-29, height 20-25 cm, g ai/ha A-1 18, B 90, C-12 252): 70%
% Herbicidal activity (Hordeum vulgare (HORVW); 28 DAT, stage 23-29, height 20-25 cm, g ai/ha A-1 12.5, B 70, C-12 252): 70%
% Herbicidal activity (Hordeum vulgare (HORVW); 28 DAT, stage 23-29, height 20-25 cm, g ai/ha A-1 18, B 70, C-12 252): 70%
% Herbicidal activity (Hordeum vulgare (HORVW); 28 DAT, stage 23-29, height 20-25 cm, g ai/ha A-1 18, B 90, C-12 252): 70%
% Herbicidal activity (Hordeum vulgare (HORVW); HORVW, growth stage 23-29, height 20-25 cm, A-1 12.5 g ai/ha, 7 DAT, Table 4.2): 70%
% Herbicidal activity (Hordeum vulgare (HORVW); HORVW, growth stage 23-29, height 20-25 cm, A-1 12.5 g ai/ha, 21 DAT, Table 4.4): 70%
% Herbicidal activity (Hordeum vulgare (HORVW); HORVW, growth stage 23-29, height 20-25 cm, A-1 12.5 g ai/ha, 28 DAT, Table 4.5): 70%
% Herbicidal activity (Hordeum vulgare (HORVW); HORVW, growth stage 23-29, height 20-25 cm, A-1 18 g ai/ha, 7 DAT, Table 4.2): 70%
% Herbicidal activity (Hordeum vulgare (HORVW); HORVW, growth stage 23-29, height 20-25 cm, A-1 18 g ai/ha, 21 DAT, Table 4.4): 70%
% Herbicidal activity (Hordeum vulgare (HORVW); HORVW, growth stage 23-29, height 20-25 cm, A-1 18 g ai/ha, 28 DAT, Table 4.5): 70%

Source: patent US12690589B2, “Herbicidal compositions comprising pyroxasulfone” (BASF SE, priority 2024, dated 2026)
